Experimental findings from patent US20220233529A1, “COMBINATION THERAPY COMPRISING A2A/A2B INHIBITORS, PD-1/PD-L1 INHIBITORS, AND ANTI-CD73 ANTIBODIES” (Incyte Corporation, priority 2020, published 2022) are described below.

The term Ki denotes the equilibrium dissociation constant of an inhibitor or competing ligand from its target. Low readings indicate a stronger hold on the target, high ones a looser hold on the target.

The target in one test is T1, Adenosine A2A Receptor (Homo sapiens, UniProt P29274).
T1 construct: Tag-lite label (own knowledge: SNAP-tag fusion labeled with terbium); purchased CisBio C1TT1A2A
In words: A2A Tag-lite HTRF assay. The format is binding. The note with it: Tag-lite Adenosine A2A labeled cells; fluorescent antagonist ligand 12.5 nM. (In general: In TR-FRET formats the signal depends on donor and acceptor labels being close together.)

For test [1], the target named is T2, human adenosine A2B receptor (Homo sapiens, UniProt P29275).
T2 construct: host or cells: HEK-293 (stably transfected)
T2 sequence (P29275 1-332): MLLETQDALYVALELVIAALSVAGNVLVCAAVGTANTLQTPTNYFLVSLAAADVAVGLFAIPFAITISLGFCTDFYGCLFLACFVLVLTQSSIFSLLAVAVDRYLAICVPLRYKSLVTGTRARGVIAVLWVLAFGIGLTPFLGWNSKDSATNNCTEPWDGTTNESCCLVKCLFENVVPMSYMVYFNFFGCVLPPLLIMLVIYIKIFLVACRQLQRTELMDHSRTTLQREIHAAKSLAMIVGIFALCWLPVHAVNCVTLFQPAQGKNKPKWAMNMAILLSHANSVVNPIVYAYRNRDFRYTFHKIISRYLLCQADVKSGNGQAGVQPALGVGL
In words: Adenosine A2B Receptor cyclic AMP GS Assay. The test is classed as cell-based. As for the experimental part:
Stably transfected HEK-293 cells expressing the human adenosine A2B receptor (Perkin Elmer) were maintained in MEM culture medium with 10% FBS and 100 μg/mL Geneticin (Life Technologies). 18 to 24 hours prior to assay, geneticin was removed from culture. The cisbio cAMP-GS Dynamic kit utilizing the FRET (Fluorescence Resonance Energy Transfer) technology was used to measure cAMP accumulation in the cells. Compounds of the present disclosure at an appropriate concentration were mixed with 10000 cells/well in white 96 well half area plates (Perkin Elmer) for 30 min at RT gently shaking. […] Detection reagents, d2-labeled cAMP (acceptor) and anti-cAMP cryptate (donor) were added to each well for 60 min at RT gently shaking.

Test [2] concerns human breast adenocarcinoma tumor, MDA-MB-231. In words: Anti-tumor efficacy in humanized murine host carrying MDA-MB-231 tumor. The test is classed as in vivo, human CD34+ reconstituted mice. The note with it: vs Vehicle + IgG isotype, ANTIBODY Y 10 mg/kg i.p. every 5 days, retifanlimab 1 mg/mL i.p. every 5 days, Compound 9 10 mg/kg p.o. b.i.d., dosing day 7-35. The method, then: On day 7, and every 3 to 4 days subsequently, tumors were measured by Vernier caliper and tumor volume was calculated by the formula, Volume=[L (long dimension)×W^2 (short dimension)]/2. Based on these measurements, mice were randomized into 8 treatment groups of 10 mice each with an average starting tumor volume of 180 mm^3. The studied agents were formulated and administered as follows: ANTIBODY Y was diluted to a final concentration of 1 mg/mL in phosphate-buffered saline and administered by intraperitoneal (i.p.) injection at 10 mL/kg to mice for a dose of 10 mg/kg, every 5 days. Retifanlimab (Macrogenics) was diluted to 1 mg/mL and dosed i.p., every 5 days. For combination treatments, the two antibodies were co-formulated to a concentration of 1 mg/mL, each. The oral vehicle was 5% N,N-dimethylacetamide in 0.5% methyl-cellulose in 50 mM citrate buffer, pH 3.0 (all reagents obtained from Sigma) and was administered by oral gavage (p.o.) twice daily (b.i.d.).
Dosing began at day 7, and ran for 28 days, through day 35. […]
Tumor Growth Inhibition (TGI), defined as (1-treatment group volume)/control group volume)×100 was analyzed for the whole study on day 47, the last day prior to some animals leaving the study at their endpoint. […]

[3] abbreviates: HEK-293 cells expressing human A2B, agonist NECA 12 nM, cAMP accumulation, read-out: A2B—cAMP_EC50.

Like-named read-outs stand apart in the source and are kept apart here.

T1 sequence (P29274 whole entry, the tested form may be a part): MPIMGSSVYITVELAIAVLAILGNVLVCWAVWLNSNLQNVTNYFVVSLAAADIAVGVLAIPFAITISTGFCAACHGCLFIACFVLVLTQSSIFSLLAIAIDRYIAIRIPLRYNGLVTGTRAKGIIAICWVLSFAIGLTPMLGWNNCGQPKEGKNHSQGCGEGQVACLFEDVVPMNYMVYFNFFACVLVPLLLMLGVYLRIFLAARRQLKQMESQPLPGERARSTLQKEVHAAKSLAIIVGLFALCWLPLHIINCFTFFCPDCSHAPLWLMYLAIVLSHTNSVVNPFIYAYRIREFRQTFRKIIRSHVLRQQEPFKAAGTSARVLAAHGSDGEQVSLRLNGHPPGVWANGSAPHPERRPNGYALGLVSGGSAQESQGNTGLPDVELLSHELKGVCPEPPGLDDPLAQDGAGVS
Method for Adenosine A2A Receptor: Test compounds were first serially diluted in DMSO and 100 nL added to the plate wells before the addition of other reaction components. The final concentration of DMSO was 1%. Tag-lite® Adenosine A2A labeled cells (CisBio C1TT1A2A) were diluted 1:5 into Tag-lite buffer (CisBio LABMED) and spun 1200 g for 5 mins.

On to `N#Cc1cccc(-c2cc3nc(C(O)c4ccccc4)nn3c(N)n2)c1` (stereo not shown) [Compound 5, 3-(5-Amino-2-(hydroxy(phenyl)methyl)-[1,2,4]triazolo[1,5-c]pyrimidin-7-yl)benzonitrile], for which the Ki at Adenosine A2A Receptor was less than 0.01 µM. Moreover, the EC50 in test [1] (setting [3]) was less than 0.01 µM.

At Adenosine A2A Receptor, `N#Cc1cccc(-c2nc(N)n3nc(C(O)c4c(F)cccc4F)nc3c2C#N)c1F` (stereo not shown) [Compound 7, 5-Amino-7-(3-cyano-2-fluorophenyl)-2-((2,6-difluorophenyl)(hydroxy)methyl)-[1,2,4]triazolo[1,5-c]pyrimidine-8-carbonitrile] came in with a Ki of less than 0.01 µM. The EC50 in test [1] (setting [3]) was less than 0.01 µM.

For `Cc1cccnc1COc1nc2c(-c3ccncn3)c(-c3cccc(C#N)c3)nc(N)n2n1` [Compound 4, 3-(5-Amino-2-((3-methylpyridin-2-yl)methoxy)-8-(pyrimidin-4-yl)-[1,2,4]triazolo[1,5-c]pyrimidin-7-yl)benzonitrile], the Ki at Adenosine A2A Receptor is less than 0.01 µM.

In turn, `N#Cc1cccc(-c2nc(N)n3nc(C(O)c4c(F)cccc4F)nc3c2-c2ccncn2)c1` (single isomer, unassigned) [Compound 2, 3-(5-Amino-2-((2,6-difluorophenyl)(hydroxy)methyl)-8-(pyrimidin-4-yl)-[1,2,4]triazolo[1,5-c]pyrimidin-7-yl)benzonitrile] displayed a Ki on Adenosine A2A Receptor of less than 0.01 µM.

Turning to `Cn1nccc1-c1c(-c2cccc(C#N)c2F)nc(N)c2nn(Cc3ccccn3)nc12` [Compound 16, 3-(4-amino-7-(1-methyl-1H-pyrazol-5-yl)-2-(pyridin-2-ylmethyl)-2H-[1,2,3]triazolo[4,5-c]pyridin-6-yl)-2-fluorobenzonitrile], the Ki on Adenosine A2A Receptor was less than 0.01 µM.

The molecule `CCCCCn1c2cc(-c3cnn(Cc4ccc5c(c4)CCN(C(=O)CN(C)C)C5)c3)[nH]c2c(=O)n2c(C)nnc12` [Compound 20, 7-(1-((2-(2-(Dimethylamino)acetyl)-1,2,3,4-tetrahydroisoquinolin-6-yl)methyl)-1H-pyrazol-4-yl)-3-methyl-9-pentyl-6,9-dihydro-5H-pyrrolo[3,2-d][1,2,4]triazolo[4,3-a]pyrimidin-5-one] showed a Ki on Adenosine A2A Receptor of less than 0.01 µM.

Regarding `Cn1nc(-c2c(-c3cccc(C#N)c3)nc(N)c3nc(Cc4ccccn4)nn23)ccc1=O` [Compound 9, 3-(8-Amino-5-(1-methyl-6-oxo-1,6-dihydropyridazin-3-yl)-2-(pyridin-2-ylmethyl)-[1,2,4]triazolo[1,5-a]pyrazin-6-yl)benzonitrile], the “Percent TGI (Day 47 Tumor Growth Inhibition)” value in test [2] is 18.42%.

With `N#Cc1cccc(-c2nc(N)c3nn(Cc4ccccn4)nc3c2-c2ccncn2)c1` [Compound 13, 3-(4-amino-2-(pyridin-2-ylmethyl)-7-(pyrimidin-4-yl)-2H-[1,2,3]triazolo[4,5-c]pyridin-6-yl)benzonitrile], the Ki on Adenosine A2A Receptor was less than 0.01 µM.

Molecule `N#Cc1cccc(-c2nc(N)c3nn(Cc4ncccc4F)nc3c2-c2ccncn2)c1` [Compound 14, 3-(4-amino-2-((3-fluoropyridin-2-yl)methyl)-7-(pyrimidin-4-yl)-2H-[1,2,3]triazolo[4,5-c]pyridin-6-yl)benzonitrile] came in with a Ki on Adenosine A2A Receptor of less than 0.01 µM.

For the molecule `CCCCCn1c2cc(-c3cnn(Cc4cncc(C)c4)c3)[nH]c2c(=O)n2c(C)nnc12` [Compound 18, 3-Methyl-7-(1-((5-methylpyridin-3-yl)methyl)-1H-pyrazol-4-yl)-9-pentyl-6,9-dihydro-5H-pyrrolo[3,2-d][1,2,4]triazolo[4,3-a]pyrimidin-5-one], the Ki on Adenosine A2A Receptor is less than 0.01 µM.

Consider “retifanlimab: humanized IgG4 monoclonal antibody that binds to human PD-1; heavy chain SEQ ID NO:2, light chain SEQ ID NO:3”, for which the “Percent TGI (Day 47 Tumor Growth Inhibition)” value in test [2] was determined as 9.57%.

On Adenosine A2A Receptor, `CN1CCC(NCc2cccc(F)c2C(O)c2nc3cc(-c4cccc(C#N)c4F)nc(N)n3n2)C1=O` (single isomer, unassigned) [Compound 8, 3-(5-Amino-2-((2-fluoro-6-(((1-methyl-2-oxopyrrolidin-3-yl)amino)methyl)phenyl)(hydroxy)methyl)-[1,2,4]triazolo[1,5-c]pyrimidin-7-yl)-2-fluorobenzonitrile] returned a Ki of less than 0.01 µM.

Take `CCCCCn1c2cc(-c3cnn(Cc4cncc(Cl)c4)c3)[nH]c2c(=O)n2c(C)nnc12` [Compound 17, 7-(1-((5-Chloropyridin-3-yl)methyl)-1H-pyrazol-4-yl)-3-methyl-9-pentyl-6,9-dihydro-5H-pyrrolo[3,2-d][1,2,4]triazolo[4,3-a]pyrimidin-5-one]: at Adenosine A2A Receptor, the inhibition constant (Ki) was less than 0.01 µM.

On Adenosine A2A Receptor, `N#Cc1cccc(-c2nc(N)n3nc(Cc4ccccn4)nc3c2-c2ccncn2)c1` [Compound 1, 3-(5-Amino-2-(pyridin-2-ylmethyl)-8-(pyrimidin-4-yl)-[1,2,4]triazolo[1,5-c]pyrimidin-7-yl)benzonitrile] yielded a Ki of less than 0.01 µM.

`N#Cc1cccc(-c2nc(N)c3nn(Cc4ncccc4F)nc3c2-c2ccncc2)c1` [Compound 15, 3-(4-amino-2-((3-fluoropyridin-2-yl)methyl)-7-(pyridin-4-yl)-2H-[1,2,3]triazolo[4,5-c]pyridin-6-yl)benzonitrile] returned a Ki on Adenosine A2A Receptor of less than 0.01 µM.

Molecule `N#Cc1cccc(-c2cc3nc(C(O)c4c(F)cccc4F)nn3c(N)n2)c1F` (stereo not shown) [Compound 6, 3-(5-Amino-2-((2,6-difluorophenyl)(hydroxy)methyl)-[1,2,4]triazolo[1,5-c]pyrimidin-7-yl)-2-fluorobenzonitrile] gave a Ki on Adenosine A2A Receptor of less than 0.01 µM. The EC50 in test [1] (setting [3]) is less than 0.01 µM.

On to `CCCCCn1c2cc(-c3cnn(Cc4cnc5ccsc5c4)c3)[nH]c2c(=O)n2c(C)nnc12` [Compound 19, 3-Methyl-9-pentyl-7-(1-(thieno[3,2-b]pyridin-6-ylmethyl)-1H-pyrazol-4-yl)-6,9-dihydro-5H-pyrrolo[3,2-d][1,2,4]triazolo[4,3-a]pyrimidin-5-one], for which the Ki at Adenosine A2A Receptor was less than 0.01 µM.

`Cc1ncoc1-c1c(-c2cccc(C#N)c2)nc(N)c2nc(C(N)c3c(F)cccc3F)nn12` (single isomer, unassigned) [Compound 11, 3-(8-amino-2-(amino(2,6-difluorophenyl)methyl)-5-(4-methyloxazol-5-yl)-[1,2,4]triazolo[1,5-a]pyrazin-6-yl)benzonitrile]: the Ki on Adenosine A2A Receptor is less than 0.01 µM. This molecule also gave an EC50 in test [1] of less than 0.01 µM.
